Results: PubChem BioAssay (NCI)
Values joined by “and” are separate entries in the source; they are usually repeats but may differ in a detail not shown here. Equal entries are not always repeated.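 In this assay, cells in 96-well plates receive the compound at five concentrations for 48 hours. Endpoints are linearly interpolated between the surrounding concentrations. GI50 = concentration required for 50% inhibition of growth. TGI: concentration producing complete growth inhibition.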

Tests used:
Test in all cases: growth of human tumour cells (NCI), 48 h
SNB-75 CNS = system: SNB-75 CNS
MDA-MB-231 breast = system: MDA-MB-231 breast
NCI-H226 lung = system: NCI-H226 lung
NCI/ADR-RES ovarian = system: NCI/ADR-RES ovarian
OVCAR-4 ovarian = system: OVCAR-4 ovarian
KM12 colon = system: KM12 colon
RPMI-8226 leukemia = system: RPMI-8226 leukemia
SF-295 CNS = system: SF-295 CNS
SF-539 CNS = system: SF-539 CNS
HCT-116 colon = system: HCT-116 colon

Row | SMILES | GI50 (SNB-75 CNS) [µM] | TGI (SNB-75 CNS) [µM] | GI50 (MDA-MB-231 breast) [µM] | TGI (MDA-MB-231 breast) [µM] | GI50 (NCI-H226 lung) [µM] | TGI (NCI-H226 lung) | GI50 (NCI/ADR-RES ovarian) | TGI (NCI/ADR-RES ovarian) | GI50 (OVCAR-4 ovarian) | TGI (OVCAR-4 ovarian) | GI50 (KM12 colon) [µM] | TGI (KM12 colon) | GI50 (RPMI-8226 leukemia) [µM] | TGI (RPMI-8226 leukemia) [µM] | GI50 (SF-295 CNS) [µM] | TGI (SF-295 CNS) | GI50 (SF-539 CNS) [µM] | TGI (SF-539 CNS) | GI50 (HCT-116 colon) [µM] | TGI (HCT-116 colon)
1 | COc1ccc(C2=NN(C=O)C(c3cccc(Nc4ccnc5cc(Cl)ccc45)c3)C2)cc1 (stereo not given) | 2.56 | 38 | 4 | 97 | 3.13 | > 100 µM | 1.66 µM | 31.7 µM | 1.54 µM | 31.8 µM | 2.18 | 37 µM | 1.36 | 11.2 | 1.24 | 23 µM | 2.34 | 7.41 µM | 1.84 | 6.02 µM
2 | Cn1c2c(c3ccc(Cl)c(Cl)c31)C(C#N)C1(CCNCC1)NC2=O (stereo not given) | 1.14 | 4.72 | 1.54 | 3.46 | 2.24 | 12.7 µM | 3.72 µM | 12.2 µM | 2.82 µM | 8.8 µM | 1.6 | 3.03 µM | 1.7 | 3.87 | 2.46 | 8.1 µM | 2.03 | 6.34 µM | 1.39 | 2.92 µM
3 | Cc1cc(Cl)ccc1Nc1nc(C(F)(F)F)ccc1C(=O)N/N=C/c1ccc([N+](=O)[O-])cc1 | 1.71 | 10 | 1.86 | 5.78 | 1.58 | 4.27 µM | 1.98 µM | > 32.5 µM | 0.602 µM | > 20 µM | 0.838 | 2.43 µM | 0.435 | 1.77 | 1.55 | 5.71 µM | 2.65 | 14.4 µM | 1.85 | > 23.9 µM
4 | COc1ccc(Cn2c3c(cc(OS(=O)(=O)C(F)(F)F)c2=O)Cc2ccccc2-3)cc1 | > 100 | > 100 | 5.26 | > 100 | 37.7 | 50 µM and > 100 µM | 3.03 µM | 50 µM and > 100 µM | 9.56 µM | 50 µM and > 100 µM | 41.1 | 50 µM and > 100 µM | – | 50 | 31.7 | 50 µM and > 100 µM | 5.29 | 50 µM and > 100 µM | 3.53 | 50 µM and > 100 µM
5 | CCC[n+]1cc2cc(OC)c(OC)cc2c2c1-c1cc3c(cc1C2)OCO3 | 0.843 | 4.52 | 4.71 | 15.4 | 1.03 | 8.13 µM | 35.2 µM | > 100 µM | 4.84 µM | 19.2 µM | 2.12 | 7.03 µM | 2.34 | 16 | 8.1 | 26.6 µM | 0.992 | 6.34 µM | 3.39 | 23.6 µM
6 | C/C=C1\NC(=O)[C@H]2CSSCCC=C[C@H](CC(=O)N[C@H](C(C)C)C(=O)N2)OC(=O)[C@H](C(C)C)NC1=O | < 0.0104 | – | < 0.01 | – | < 0.01 | 0.268 µM and 0.0317 µM and < 0.0312 µM | 1.98 µM and 0.676 µM | 27.7 µM and 11.2 µM | 0.0109 µM and < 0.0102 µM | 0.201 µM and 0.0892 µM and 0.619 µM | < 0.01 | – | < 0.01 | – | < 0.01 | < 0.01 µM and 0.013 µM | < 0.01 | 0.179 µM and 0.051 µM and 0.0469 µM | < 0.01 | < 0.01 µM and 0.0145 µM and 0.0193 µM
7 | Fc1cc2[nH]ncc2c2c3c(c(-c4cn[nH]c4C(F)(F)F)nc12)C1CCC3C1 (stereo not given) | 0.945 | 2.93 | 0.724 | 3.45 | 0.926 | 4.72 µM | 2.4 µM | 16.1 µM | 2.68 µM | 23.4 µM | 0.656 | 6.3 µM | 0.804 | 3.54 | 1.21 | 4.94 µM | 0.82 | 2.1 µM | 0.642 | 5.55 µM
8 | COc1cc2c(=O)n(CCN)c3c4cc5c(cc4ccc3c2cc1OC)OCO5 | 0.892 | 3.35 | 1.23 | 2.66 | 1.43 | 3.59 µM | 1.26 µM | 3.6 µM | 0.902 µM | 2.55 µM | 0.913 | 2.47 µM | 0.356 | 2.37 | 0.306 | 4.08 µM | 0.893 | 2.25 µM | 0.285 | 1.31 µM
9 | Cc1nc2sccn2c1-c1csc(Nc2cccc(Cl)c2C)n1 | 3.19 | 28.3 | 3.62 | 20.2 | 3.24 | 48.5 µM | 3.45 µM | 45.2 µM | 3.05 µM | > 100 µM | 3.79 | 21.8 µM | 3.83 | 33.3 | 1.72 | 10.6 µM | 6.61 | 25.3 µM | 4.67 | 20.1 µM
10 | COc1cc(C(=O)Nc2cc3c(cc2Oc2cc(C)cc(C)c2)C(=O)N(C)[C@@H](CC(=O)N(C)O)C(=O)N3)c(Br)c(OC)c1OC | < 0.00333 | < 0.00333 | < 0.00333 | < 0.00333 | < 0.00333 | 0.0128 µM | 0.777 µM | 7.34 µM | < 0.00333 µM | < 0.00333 µM | < 0.00333 | 0.0394 µM | < 0.00333 | < 0.00333 | < 0.00333 | 0.00898 µM | < 0.00333 | < 0.00333 µM | < 0.00333 | < 0.00333 µM
11 | Nc1ccc(C(=O)CC(N)C(=O)O)cc1O (stereo not given) | – | > 100 | – | > 100 | – | > 100 µM | – | > 100 µM | – | > 100 µM | – | > 100 µM | – | > 100 | – | > 100 µM | – | > 100 µM | – | > 100 µM
12 | OCCNc1ncnc2c1ncn2Cc1cccc(COc2cccc(OCc3cccc(Cn4cnc5c(NCCO)ncnc54)c3)c2)c1 | 12.3 | 27.4 | 14.5 | 29.3 | 15.5 | 33.3 µM | > 100 µM | > 100 µM | 14.7 µM | 34.2 µM | 13.3 | 38.8 µM | 6.47 | 27.8 | 13 | 31.8 µM | 11.5 | 25.4 µM | 10.2 | 22.3 µM
13 | CN1C(=O)N(C)C2C1NN=c1s/c(=C\c3ccc(F)cc3)c(=O)n12 (stereo not given) | 1.05 | 5.22 | 4.69 | > 100 | 8.02 | > 100 µM | 1.94 µM | > 100 µM | 3.05 µM | > 100 µM | 1.65 | > 100 µM | 2.56 | 8.91 | 2.45 | > 100 µM | 2.1 | 5.72 µM | 0.795 | > 100 µM
